Results as given in US20250275938A1, “COMPOSITIONS AND METHODS FOR TREATMENT OF CANCER” (SCIROSBIO (FZC), priority 2022, published 2025).

Experiments:
[1] = test system: SOD, CAT, GPx, GSH in U87MG glioma cells; assay: Antioxidant marker kits (SOD, CAT, GPx, GSH), U87MG; assay type: cell-based, human; conditions: vs control
Method: Antioxidant markers. […] All experiments were carried out according to the manufacturer's instructions. Three independent biological replicates were performed for each condition.

rat brain tissue = assay: Western blotting and ELISA of brain tissue proteins; assay type: in vivo; conditions: i.p. 7 days
TBARS in U87MG cells = assay: TBARS (MDA) assay, U87MG; assay type: cell-based, human; conditions: vs control
Method: Determination of TBARS levels. TBARS (thiobarbituric acid reactive substances), by-products of lipid peroxidation, were analyzed by measuring the concentration of malondialdehyde (MDA). The levels of MDA were measured in cell lysates using TBARS assay (Catalog No. 10009055, Cayman Chemical, Ann Arbor, USA). The concentration of lipid peroxides was calculated as an MDA equivalent using the extinction coefficient for the MDA-TBA complex of 1.56×10^5 M−1 cm^−1 at 532 nm.

SMILES: O=C(O[C@@H]1Cc2c(O)cc(O)cc2O[C@@H]1c1cc(O)c(O)c(O)c1)c1cc(O)c(O)c(O)c1 [EGCG, [(2R,3R)-5,7-dihydroxy-2-(3,4,5-trihydroxyphenyl)-3,4-dihydro-2H-chromen-3-yl] 3,4,5-trihydroxybenzoate]
- concentrations of antioxidant markers SOD, CAT, GPx, and GSH [1]: significantly enhanced
- protein levels of HIF-1α (rat brain tissue): significantly reduced
- protein levels of Nrf-2 (rat brain tissue): significantly reduced
- TBARS levels (TBARS in U87MG cells): significantly elevated
